Source: patent publication US20170204038A1, “3-(4-ISOBUTYL-2-METHYLPHENYL) PROPANAL AS PERFUME INGREDIENT” (Givaudan, S.A., priority 2013, published 2017)

Assays:
[1] = test system: male rats; settings: cited from earlier work
[2] = test system: glucose synthesis; settings: in vitro; cited from earlier work
[3] = test system: fatty acid synthesis; settings: in vitro; cited from earlier work
[4] = test system: rat hepatocytes; assay: In vitro metabolism study in rat hepatocytes in suspension (GC-MS / LC-MS); settings: for Residual test compound: male, Sprague-Dawley, rat, 4 h, 100 μM
Protocol: In order to study in vitro metabolism in rat hepatocytes Lilial™ and the compound of the present invention are incubated in presence of rat hepatocytes in suspension. Decrease of Lilial™ and the compound of the present invention, and formation of the corresponding benzoic acid derivative may be analysed by GC-MS.
Cryopreserved hepatocytes from male rats (Sprague Dawley; Lifetechnologies) were defrozen, washed in Cyropreserved Hepatocytes Recovery Medium (CHRM; Lifetechnologies) and suspended in Williams E Medium (WEM; Lifetechnologies). Lilial™, or the compound of formula (I) (final concentration: 100 μM) were added to the cells (1×10^6 viable cells/ml) and suspensions were incubated up to 4 hours at 37° C. on a shaker in duplicate. Metabolism of testosterone was monitored as positive control. Decrease of the test compounds and formation of the corresponding benzoic acid derivative was determined by GC-MS analysis of methyl-esters formed after derivatisation with trimethylsilyl-diazomethane (Sigma-Aldrich) in methanol. The test compounds react with diazomethane yielding a methyl-ketone which was used for the quantification of Lilial™ and the compound of formula (I). Metabolism was stopped with ice cold 1 M HCl, samples were extracted with tert-butyl methyl ether (MTBE) and analysed by GC-MS. Incubations containing testosterone as control were also stopped with ice cold 1 M HCl, centrifuged to separate the cells, filtrated and the decrease of testosterone analysed by LC-MS. To quantify decrease of the test substances and formation of benzoic acid metabolites, calibration curves of reference materials (Lilial™ and the compound of formula (I), tert-butyl benzoic acid (Fluka) was prepared in hepatocyte incubation medium and analysed like the hepatocyte samples.

[5] = Odour Value (ratio of vapour pressure to detection threshold concentration)
Text: The compound of formula (I) is a particularly impactful perfume ingredient. The impact that a perfume ingredient exerts is related to its Odour Value. Odour Value is the ratio of vapour pressure to detection threshold concentration.

[6] = test system: dogs; settings: dog, in vivo; cited from earlier work
[7] = test system: guinea-pigs; settings: cited from earlier work
[8] = test system: mice; settings: cited from earlier work
[9] = test system: male rats; settings: rat, in vivo; cited from earlier work
[10] = test system: primates; settings: cited from earlier work

SMILES: CC(C)(C)c1ccc(C(=O)O)cc1 [tert-butyl benzoic acid]
- testicular effects [1]: cause testicular effects
- inhibition of glucose synthesis [2]: inhibit
- inhibition of fatty acid synthesis [3]: inhibit

SMILES: C[C@]12CC[C@H]3[C@@H](CCC4=CC(=O)CC[C@@]43C)[C@@H]1CC[C@@H]2O [testosterone]
- Decrease of testosterone (positive control) ([4]; rat hepatocytes, LC-MS): rapid decrease

SMILES: Cc1cc(CC(C)C)ccc1CCC=O [Compound of formula (I), 3-(4-isobutyl-2-methylphenyl)propanal]
- Residual test compound [4]: 0 µM
- Odour Value [5]: 559,071

SMILES: CC(C=O)Cc1ccc(C(C)(C)C)cc1 (centres unmarked) [Lilial™, 3-(4-tert-butylphenyl)-2-methylpropanal]
- toxic effects on the reproductive organs [6]: toxic effects
- effects in studies with guinea-pigs [7]: No effects
- effects in studies with mice [8]: No effects
- toxic effects on the reproductive organs [9]: toxic effects
- effects in studies with primates [10]: No effects
- Residual test compound [4]: 0 µM
- Odour Value [5]: 32,978

SMILES: CC(C=O)Cc1ccc(C(C)C)cc1 (centres unmarked) [Cyclamen aldehyde, 3-p-cumenyl-2-methylpropionaldehyde]
- Odour Value [5]: 21,986
